Laboratory results taken from the supplement of paper PMC10307832.

Columns and labels:
Experiment in all cases: relative viability (nuclei count vs DMSO), 5 days (fraction); higher = more cells survive
Serdemetan + Decitabine = compound: c1ccc2c(CCNc3ccc(Nc4ccncc4)cc3)c[nH]c2c1 [Serdemetan] + Nc1ncn([C@H]2C[C@H](O)[C@@H](CO)O2)c(=O)n1 [Decitabine] (partner 2 µM)
Method in brief: (§1)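 Nuclei were stained with Hoechst during a one-step fixation (final 0.05% Triton X-100, 1% formaldehyde, 1 ug/ml Hoechst) carried out 5 days after dosing, then counted on 4× images. The cells, lung cancer lines in 1536-well plates, had been dosed by pin tool the day after seeding with one drug alone or a fixed anchor-drug dose plus five library-drug doses (not always all listed) in √10 steps. Relative viability is the nuclei count in treated wells divided by that in vehicle wells, and each value is the median of duplicate plates.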

Serdemetan + OSI-027 = compound: c1ccc2c(CCNc3ccc(Nc4ccncc4)cc3)c[nH]c2c1 [Serdemetan] + COc1cccc2cc(-c3nc([C@H]4CC[C@H](C(=O)O)CC4)n4ncnc(N)c34)[nH]c12 [OSI-027] (partner 0.5 µM)
Method in brief: as §1

Serdemetan + Olaparib = compound: c1ccc2c(CCNc3ccc(Nc4ccncc4)cc3)c[nH]c2c1 [Serdemetan] + O=C(c1cc(Cc2n[nH]c(=O)c3ccccc23)ccc1F)N1CCN(C(=O)C2CC2)CC1 [Olaparib] (partner 8 µM)
Method in brief: as §1

Selisistat + Pemetrexed = compound: C1CC(C2=C(C1)C3=C(N2)C=CC(=C3)Cl)C(=O)N [Selisistat] + Nc1nc2[nH]cc(CCc3ccc(C(=O)N[C@@H](CCC(=O)O)C(=O)O)cc3)c2c(=O)[nH]1 [Pemetrexed] (partner 0.2 µM)
Method in brief: as §1

| Cell Line | relative viability (Serdemetan + Decitabine; first compound 0.04 µM) | relative viability (Serdemetan + Decitabine; first compound 0.1265 µM) | relative viability (Serdemetan + Decitabine; first compound 0.4 µM) | relative viability (Serdemetan + Decitabine; first compound 1.265 µM) | relative viability (Serdemetan + Decitabine; first compound 4 µM) | relative viability (Serdemetan + OSI-027; first compound 0.04 µM) | relative viability (Serdemetan + OSI-027; first compound 0.1265 µM) | relative viability (Serdemetan + OSI-027; first compound 0.4 µM) | relative viability (Serdemetan + OSI-027; first compound 1.265 µM) | relative viability (Serdemetan + OSI-027; first compound 4 µM) | relative viability (Serdemetan + Olaparib; first compound 0.04 µM) | relative viability (Serdemetan + Olaparib; first compound 0.1265 µM) | relative viability (Serdemetan + Olaparib; first compound 0.4 µM) | relative viability (Serdemetan + Olaparib; first compound 1.265 µM) | relative viability (Serdemetan + Olaparib; first compound 4 µM) | relative viability (Selisistat + Pemetrexed; first compound 0.4 µM) | relative viability (Selisistat + Pemetrexed; first compound 1.265 µM) | relative viability (Selisistat + Pemetrexed; first compound 12.65 µM) | relative viability (Selisistat + Pemetrexed; first compound 40 µM) | relative viability (Selisistat + Pemetrexed; first compound 4 µM) |
| --- | --- | --- | --- | --- | --- | --- | --- | --- | --- | --- | --- | --- | --- | --- | --- | --- | --- | --- | --- | --- |
| NCI-H322M | 0.667 | 0.675 | 0.682 | 0.534 | 0.647 | 0.52 | 0.56 | 0.681 | 0.509 | 0.422 | 0.667 | 0.757 | 0.729 | 0.469 | 0.655 | 0.558 | 0.633 | 0.515 | 0.618 |  |
| NCI-H522 | 0.677 | 0.775 | 0.68 | 0.691 | 0.613 | 0.814 | 0.704 | 0.887 |  | 0.712 | 0.595 | 0.665 | 0.65 | 0.458 | 0.477 | 1.03 | 0.646 | 0.94 | 1.1 | 0.781 |
| NCI-H647 | 0.276 | 0.368 | 0.403 | 0.28 | 0.235 | 0.609 | 0.634 | 0.751 | 0.585 | 0.648 | 0.51 | 0.495 | 0.534 | 0.27 | 0.165 | 0.165 | 0.203 | 0.174 | 0.178 | 0.193 |
| SK-MES-1 | 0.327 | 0.368 | 0.397 | 0.33 | 0.281 | 0.572 | 0.578 | 0.621 | 0.541 | 0.447 | 0.688 | 0.687 | 0.635 | 0.522 | 0.43 | 1.01 | 0.957 | 0.828 | 1.01 | 0.917 |
| NCI-H2170 | 0.419 | 0.497 | 0.437 | 0.417 | 0.361 | 0.686 | 0.737 | 0.635 | 0.367 | 0.73 | 0.641 | 0.571 | 0.544 | 0.469 | 0.352 | 0.249 | 0.264 | 0.244 | 0.242 | 0.25 |
| NCI-H2085 | 0.541 | 0.582 | 0.485 | 0.324 | 0.374 | 0.701 | 0.702 | 0.593 | 0.61 | 0.764 | 0.818 | 0.676 | 0.597 | 0.44 | 0.393 | 1.06 | 0.967 | 0.939 | 0.877 | 0.622 |
| SW 1573 | 0.484 | 0.522 | 0.427 | 0.249 | 0.219 | 0.749 | 0.705 | 0.716 | 0.439 | 0.289 | 0.571 | 0.464 | 0.445 | 0.21 | 0.296 | 0.798 | 0.774 | 0.815 | 0.776 |  |
| NCI-H441 | 0.256 | 0.22 | 0.249 | 0.219 | 0.172 | 0.581 | 0.802 | 0.622 | 0.347 | 0.441 | 0.513 | 0.422 | 0.5 | 0.3 | 0.281 | 0.31 | 0.247 | 0.271 | 0.279 | 0.293 |
| LOU-NH91 | 0.813 | 0.845 |  |  | 0.872 | 0.703 | 0.681 | 0.456 | 0.692 | 0.784 | 0.897 | 0.889 |  |  | 0.877 | 0.329 | 0.339 | 0.395 | 0.459 | 0.42 |
| NCI-H3122 | 0.451 | 0.444 | 0.469 | 0.322 | 0.368 | 0.98 | 0.949 | 0.943 | 0.322 | 0.974 | 0.597 | 0.614 | 0.557 | 0.407 | 0.367 | 0.184 | 0.198 | 0.205 | 0.188 | 0.187 |
| NCI-H460 | 0.374 | 0.385 | 0.314 | 0.194 | 0.102 | 0.61 | 0.691 | 0.641 | 0.342 | 0.0861 | 0.342 | 0.344 | 0.349 | 0.182 | 0.148 | 0.0578 | 0.0622 | 0.0572 | 0.0629 | 0.0632 |
| NCI-H650 | 0.321 | 0.331 | 0.321 | 0.24 | 0.262 | 0.471 | 0.502 | 0.578 | 0.456 | 0.584 | 0.379 | 0.362 | 0.365 | 0.271 | 0.285 | 0.961 | 0.907 | 0.921 | 1.18 | 1.06 |
| NCI-H661 | 0.543 | 0.533 | 0.533 | 0.473 | 0.469 | 0.689 | 0.706 | 0.736 | 0.672 | 0.69 | 0.711 | 0.648 | 0.634 | 0.549 | 0.558 | 0.915 | 0.898 | 0.929 | 0.861 | 0.854 |
| NCI-H1793 | 0.46 | 0.449 | 0.361 | 0.219 | 0.231 | 0.385 | 0.251 | 0.236 | 0.186 | 0.179 | 0.814 | 0.73 | 0.547 | 0.316 | 0.285 | 1.06 | 0.824 | 1.03 | 0.867 |  |
| NCI-H1734 | 0.44 | 0.26 | 0.226 | 0.111 | 0.188 | 0.586 | 0.523 | 0.554 | 0.138 | 0.196 | 0.327 | 0.183 | 0.171 | 0.114 | 0.149 | 0.357 | 0.388 | 0.434 | 0.391 | 0.401 |
| LXF-289 | 0.354 | 0.357 | 0.349 | 0.268 | 0.337 | 0.802 | 0.847 | 0.811 | 0.691 | 0.729 | 1.1 | 1.11 | 0.939 | 0.794 | 0.388 | 0.925 | 1.04 | 0.841 | 0.959 | 0.83 |
| H3255 | 0.546 | 0.588 |  | 0.569 | 0.42 | 0.587 | 0.675 | 0.613 | 0.573 | 0.518 | 0.559 | 0.529 | 0.527 | 0.508 | 0.566 | 0.556 | 0.556 | 0.552 | 0.526 | 0.528 |
